The test system of series [1] is M. tuberculosis H37Rv. The series is described as follows: MIC determination by microplate alamar blue assay (MABA). In kind it is cell-based. The following applies: Mycobacterium tuberculosis.
The next series concerns E. coli. The series is described as follows: Inhibitory potency against E. coli. In kind it is cell-based. The settings on record: at 16 µg/mL.
The next series relates to HepG2 cell. The series is described as follows: Cytotoxicity against HepG2 cell, MTT assay. In kind it is cell-based. The settings on record: at a concentration lower than 1.0 μg/mL. As to the method: (§1) HepG2 cells we r e obtained from the Chinese Type Culture Collection (Shanghai, China) and maintained in Dulbecco’s modiﬁed eagle medium (Gibco; #C11995500BT) con‐ taining 1% (v/v) penicillin/streptomycin (Beyotime; #C0222) and 10% (v/v) fetal bovine se‐ rum (Gibco; #GB10270106) in an atmosphere of 5% CO2 at 37 °C. HepG2 cells we r e seeded into 96‐we l l plates at a density of 5,000 cells/well (100 µL total volume) and treated with diﬀerent concentrations of compound 2 and 37 (0, 0.025, 0.2, 1, 5, and 10 µg/mL). After 24 h the medium wa s removed and the cells we r e incubated in a fresh medium containing 5 mg/mL MTT for 4 h. The medium wa s then removed and the precipitated formazan wa s dissolved in 100 µL of DMSO followed by shaking for 10 min. Finally, the absorbance at 570 nm wa s measured on a microplate spectrophotometer. Each treatment wa s performed […]
(§2) Figure S1. Inhibitory activity of compounds 2 and 37 against HepG2 cell. […]

Series [2] is described as follows: Cytotoxicity against HepG2 cell, MTT assay. The format is cell-based. The following applies: human, HepG2 cells, at 5.0 μg/mL, 24 h. As to the method: as §1, §2
Another series in a line: in vitro. In kind it is in vitro ADME. The arrangement: dose or concentration left out as unconfirmed. The following applies: human, microsomes, pH 7.4. The procedure:
The compounds’ metabolic stability were determined in human liver microsomes. A solution of microsomes (0.2 mg/mL) containing the compounds […], NADPH (1 mM), and phosphate buffer (100 mM, pH 7.4) were prepared. Pre-incubation was conducted at 37 °C for 10 min. There was addition of 50 µL and 5 mM NADPH to initiate the reaction. At 5, 15, 30, 60, or 120 min, 30 µL of reaction solution was taken out and quenched with 300 µL internal standard tolbutamide (10 ng/mL) in cold CH3CN. The mixture was centrifuged at 6000 rpm for 15 min at 4 °C. Then, 100 μL supernatant was diluted with 100 uL ultrapure water (Millipore, ZMQS50F01). The solution was analyzed via LC/MS analysis.

Series [3] is described as follows: Kinetic solubility in PBS. The following applies: pH 7.4, aqueous buffer, kinetic from dmso stock.
The test system of series [4] is M. tuberculosis H37Rv. The series is described as follows: [14C]-acetate metabolic labeling, TLC analysis of lipids. The format is cell-based. The following applies: Mtb H37Rv, 10 × MIC, 100 × MIC, 24 h, compared to control bacteria.
For series [5], the system named is M. tuberculosis H37Rv. The series is described as follows: In vivo efficacy, mouse model acutely infected with Mtb H37Rv, lung CFU. The settings on record: BALB/C mice, oral 50 mg/kg once per day for 4 weeks except weekends.
Series [6] in a line: Pharmacokinetic study in mice. The format is in vivo. The settings on record: male, ICR, mouse, plasma; for clearance: read-out: Clint (hepatic clearance) (converted); for bioavailability: oral, p.o. 10 mg/kg vs i.v. 2 mg/kg, read-out: F (oral bioavailability). From the text:
Animal Care and Welfare Committee of Shanghai Institute of Materia Medica, Chinese Academy of Sciences approved all animal protocols. All animal programs are in compliance with the Guide for the Care and Use of Laboratory Animals issued by Shanghai Association on Laboratory Animal Care (SALAC). SPF male ICR mice weighing 25–27 g were divided into two groups, three mice in each group. The tested compounds were administrated via oral and intravenous injection, separately. […] The compound was co-dissolved by using 0.5% carboxymethyl cellulose for p.o. administration, and 10% DMSO/40%PEG400/40% water was used for i.v. administration, respectively. After oral dosing or i.v. administration, the blood was sampled at 5, 15, 30 min, and 1, 2, 4, 7, and 24 h. The sample plasma was harvested and stored at −80 °C for analysis. Based on noncompartmental analysis (Pharsight Corporation, Sunnyvale, CA, USA), the pharmacokinetic data were analyzed using WinNonlin software version 6.3.

The target of series [7] is T1, recombinant M. tuberculosis DprE1 enzyme (Mycobacterium tuberculosis, UniProt P9WJF1).
T1 construct: made in house; host or cells: E. coli
The series is described as follows: DprE1 inhibition, Amplex Red/peroxidase coupled assay. The format is biochemical. The settings on record: Mtb DprE1.

The test system of series [8] is Mycobacterium tuberculosis. Also noted: method as in PMID 24500695. The settings on record: whole-cell activity; cited from earlier work.
A further series in a line: physchem. The following applies: pH 7.4, aqueous buffer, kinetic from dmso stock.

In brackets after ≈: the same amount, converted by molar mass.

T1 sequence (P9WJF1 whole entry): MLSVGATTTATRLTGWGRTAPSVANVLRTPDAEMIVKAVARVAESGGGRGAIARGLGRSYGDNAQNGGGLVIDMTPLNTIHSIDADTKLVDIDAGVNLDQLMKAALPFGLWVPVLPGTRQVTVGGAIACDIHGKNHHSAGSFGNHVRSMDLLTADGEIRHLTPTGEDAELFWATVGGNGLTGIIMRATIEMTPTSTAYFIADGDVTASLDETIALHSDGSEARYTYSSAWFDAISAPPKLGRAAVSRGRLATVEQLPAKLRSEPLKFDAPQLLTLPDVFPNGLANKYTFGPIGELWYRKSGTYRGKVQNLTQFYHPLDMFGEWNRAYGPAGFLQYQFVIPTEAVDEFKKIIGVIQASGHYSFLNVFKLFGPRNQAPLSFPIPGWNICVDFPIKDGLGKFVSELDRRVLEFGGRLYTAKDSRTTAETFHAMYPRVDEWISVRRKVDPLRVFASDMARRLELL

In turn, `CN(Cc1cn(-c2ccccc2)nn1)c1nc(=O)c2cc(C(F)(F)F)cc([N+](=O)[O-])c2s1` [Compound 2, 2-{methyl[(1-phenyl-1H-1,2,3-triazol-4-yl)methyl]amino}-BTZ] returned an MIC against M. tuberculosis H37Rv [1] (168 h, Mtb H37Rv, MABA) of 9 nM. In the series on M. tuberculosis H37Rv [1] (Mtb H37Rv, MABA), this compound returned an MIC of 9 nM. Further, the “Inhibitory potency against E. coli” value with E. coli is “no obvious activity”. The “Inhibition of HepG2 cell viability” value in the series on HepG2 cell is “No inhibition of cell viability”. Further, the viability at 24 h, 5 μg/mL in [2] is 72 to 75%. In the series “in vitro”, the CLint scaled came to 17.3 mL/min/kg and the half-life turned out to be 100 min. The compound further registered a solubility at 4 h in series [3] of 0.13 µg/mL (≈ 0.281 µM). In the series with M. tuberculosis H37Rv [4], the “Lipid profile after [14C]-acetate labeling” value (“Lipid profile” below) is “accumulated trehalose monomycolates (TMM) and trehalose dimycolates (TDM)”. In addition, the “Reduction of bacteria load in the lungs compared to the control group” value (shortened to “Reduction of bacteria load in the lungs”) in the series on M. tuberculosis H37Rv [5] is given as “barely displayed efficacy”. For the same compound, in [6] (IV 2 mg/kg), the exposure (AUC) stood at 1210 ng·h/mL, the maximum concentration (Cmax) came out at 1250 ng/mL, the mean residence time MRT was determined as 1.5 h and the half-life is 66 min. In addition, the clearance in series [6] (IV 2 mg/kg) is 27.8 mL/min/kg. Further, in series [6] (PO 10 mg/kg), the exposure (AUC) came to 2190 ng·h/mL, the maximum concentration (Cmax) stood at 1800 ng/mL, the mean residence time (MRT) was found to be 2 h and the half-life was 78 min. For the same compound, the bioavailability in [6] was determined as 35.7%. Further, the half-inhibitory concentration (IC50) in series [7] was in the range of 20 to 750 nM.
As for `CN(Cc1nnc(-c2ccccc2)o1)c1nc(=O)c2cc(C(F)(F)F)cc([N+](=O)[O-])c2s1` [Compound 37, 2-{methyl[(5-phenyl-1,3,4-oxadiazol-2-yl)methyl]amino}-BTZ], the MIC with M. tuberculosis H37Rv [1] (Mtb H37Rv, MABA) turned out to be 6 nM. Besides, the “Inhibitory potency against E. coli” value in the series with E. coli is on record as “no obvious activity”. For the same compound, the “Inhibition of HepG2 cell viability” value in the series on HepG2 cell is “No inhibition of cell viability”. Moreover, in series [2], the viability at 24 h, 5 μg/mL was in the range of 72 to 75%. Moreover, in the series “in vitro”, the intrinsic clearance (CLint scaled) is 25.5 mL/min/kg and the half-life was 68.2 min. Also, the solubility at 4 h in series [3] was found to be 0.25 µg/mL (≈ 0.539 µM). Moreover, in the series on M. tuberculosis H37Rv [4], the “Lipid profile” value is “accumulated trehalose monomycolates (TMM) and trehalose dimycolates (TDM)”. Further, the “Reduction of bacteria load in the lungs” value in the series with M. tuberculosis H37Rv [5] is on record as 1.2 logs. In [6] (IV 2 mg/kg), the AUC was 528 ng·h/mL, the Cmax amounted to 1860 ng/mL, the MRT was found to be 0.4 h and the half-life is 18 min. In addition, the clearance in series [6] (IV 2 mg/kg) is 64 mL/min/kg. In [6] (PO 10 mg/kg), the AUC worked out at 1870 ng·h/mL, the Cmax worked out at 1890 ng/mL, the MRT stood at 0.9 h and the half-life was 36 min. Further, in series [6], the bioavailability turned out to be 70.6%. In series [7], the IC50 was in the range of 20 to 750 nM.
With `O=c1nc(N2CCN(CC3CCCCC3)CC2)sc2c([N+](=O)[O-])cc(C(F)(F)F)cc12` [PBTZ169, reference compound], the MIC in the series on M. tuberculosis H37Rv [1] (H37Rv, Table S1) was 0.2 ng/mL; against M. tuberculosis H37Rv [1] (Mtb H37Rv, MABA), under 4 nM. In [8], the “minimal inhibitory concentration (MIC)” value is “lower than 0.004 µM”. Moreover, in the series with M. tuberculosis H37Rv [4], the “Lipid profile” value is “accumulated trehalose monomycolates (TMM) and trehalose dimycolates (TDM)”. For the same compound, the “Reduction of bacteria load in the lungs” value in the series with M. tuberculosis H37Rv [5] was 3 logs. The compound also had a solubility at 4 h in “physchem” of under 0.011 µg/mL.

The record behind these values is paper PMC10377601, “Side Chain-Modified Benzothiazinone Derivatives with Anti-Mycobacterial Activity” (Biomedicines, 2023).
